In US6488924B1, “Vitamin K adduct, particularly suitable as vitamin supplement for feeds” (Luigi Stoppani S.p.A., priority 1999, dated 2002):

Assays:
[1] = Characteristic parameters and comparative tests adduct vs MSB: solubility; assay type: physicochemical; conditions: at 25° C.
[2] = pH of the medium; cited from earlier work
[3] = Stability in extruded feed (fish farm feed); assay type: physicochemical; conditions: for menadione in feed, sampling point End point: after extrusion, drying and addition of fat; for menadione in feed, sampling point Mixer: after mixing, before extrusion
Description: Two preparations of vitamin supplement of approximately 2500 kg of feed were prepared for each vitamin K source. The vitamin K supplements were mixed in with the feed in an industrial mixer, extruded in a continuous extruder with the addition of live steam, dried and added with fat.

[4] = Release of menadione in aqueous medium; assay type: physicochemical; conditions: demineralized water, municipal drinking water, seawater
Description: The menadione release capacity of the adduct according to the invention and of MSB in three different types of water (demineralized water, municipal drinking water, and seawater) is evaluated.
The following table lists the milligrams/liter of menadione found in the solution with respect to the total menadione of the polymeric adduct added as a suspension equal to 1 g/l ([…] menadione on 1 g of dry adduct): […]

[5] = Solubility in water (saturated solution in demineralized water); assay type: physicochemical; conditions: ambient temperature, saturated solution in presence of a precipitate
[6] = Thermal stability in controlled humidity (dispersed in aluminum silicate); assay type: physicochemical
Description: A method described in the literature is used to compare the stability of Kavist with respect to MSB. According to this method, the products, as accurately dispersed in aluminum silicate (K.F. humidity around 11%) at the level of 1.5% by weight, are kept at 55° C. for 3 days in order to evaluate their menadione content before and after the treatment. The menadione titers of the adduct according to the invention and the percentage of menadione left unchanged before and after the treatment are listed hereafter.

[7] = Thermal stability in air-circulation stove; assay type: physicochemical; conditions: absence of humidity
[8] = Stability under pressure (press on disk of finely ground powder); assay type: physicochemical; conditions: 30 minutes

SMILES | water solubility [1] [g/100 ml at 25 °C] | pH at which isomerization into poorly effective product becomes complete [2] | menadione in feed, sampling point End point ([3]; 1st preparation) [mg/kg] | menadione in feed, sampling point Mixer ([3]; 1st preparation) [mg/kg] | menadione in feed, sampling point End point ([3]; 2nd preparation) [mg/kg] | menadione in feed, sampling point Mixer ([3]; 2nd preparation) [mg/kg] | menadione release in water (in words) [4] | Menadione concentration mg/l saturated solution [5] | Final menadione/initial menadione ([6]; 55° C. for 3 days in aluminum silicate (humidity around 11%)) [%] | Final menadione content ([6]; after 55° C. for 3 days in aluminum silicate (humidity around 11%)) [%] | Initial menadione content ([6]; before treatment, dispersed in aluminum silicate (humidity around 11%) at 1.5% by weight) [%] | Men found/initial Men ([7]; 120° for 24 hours) [%] | Color ([7]; after 120° for 24 hours) | percentage of menadione left unchanged ([8]; 1 atm, 25° C.) [%] | percentage of menadione left unchanged ([8]; 1 atm, 120° C.) [%] | percentage of menadione left unchanged ([8]; 25 atm, 25° C.) [%] | percentage of menadione left unchanged ([8]; 25 atm, 120° C.) [%] | percentage of menadione left unchanged ([8]; 5000 atm, 25° C.) [%] | percentage of menadione left unchanged ([8]; 5000 atm, 120° C.) [%]
CC1(S(=O)(=O)[O-])CC(=O)c2ccccc2C1=O.[Na+] (centres unmarked) [MSB, menadione sodium bisulfite] | 50 | approximately 8.5 | 21.0 | 90.9 | 16.1 | 87.6 | substantially instantaneous release | Higher than 20 × 10^4 mg mg/l | 15.5 | 0.24 | 1.52 | 0 | Purple | 100 | 20 | 100 | 15 | 80 | 10
CC1(S(=O)(=O)O)CC(=O)c2ccccc2C1=O.NC(=O)c1cccnc1 (centres unmarked) [MNB, menadione nicotinamide bisulfite] |  |  | 22.7 | 86.1 | 18.1 | 86.3 |  |  |  |  |  |  |  |  |  |  |  |  | 
